From ChEMBL document CHEMBL4033734, “Synthesis of 3- and 29-substituted celastrol derivatives and structure-activity relationship studies of their cytotoxic activities” (Bioorg Med Chem Lett, 2017)

What was measured:
Assay type in all cases: functional, cell-based
[1] = tested on: HeLa; experiment: Cytotoxic activity against human HeLa cells incubated for 48 hrs by MTT assay
[2] = tested on: SGC-7901; experiment: Cytotoxic activity against human SGC7901 cells incubated for 48 hrs by MTT assay; conditions: SGC-7901, 48 h
[3] = tested on: A549; experiment: Cytotoxic activity against human A549 cells incubated for 48 hrs by MTT assay; conditions: A549, 48 h
[4] = tested on: HepG2; experiment: Cytotoxic activity against human HepG2 cells incubated for 48 hrs by MTT assay; conditions: HepG2, 48 h
[5] = tested on: Bel-7402; experiment: Cytotoxic activity against human Bel7402 cells incubated for 48 hrs by MTT assay; conditions: Bel-7402, 48 h

## CC1=C(OC(=O)N2CCCCC2C)C(=O)C=C2C1=CC=C1[C@@]2(C)CC[C@@]2(C)[C@@H]3C[C@](C)(C(=O)OCc4ccccc4)CC[C@]3(C)CC[C@]12C (stereo not given in full)
[1]
  IC50: 4.27 µM
[2]
  IC50: 4.73 µM
[3]
  IC50: 15 µM
[4]
  IC50: 8.19 µM
[5]
  IC50: 5.05 µM

## CC1=C(O)C(=O)C=C2C1=CC=C1[C@@]2(C)CC[C@@]2(C)[C@@H]3C[C@](C)(C(=O)OCc4ccc(Br)cc4)CC[C@]3(C)CC[C@]12C
[1]
  IC50: 0.87 µM
[2]
  IC50: 0.81 µM
[3]
  IC50: 3.07 µM
[4]
  IC50: 0.66 µM
[5]
  IC50: 0.52 µM

## CC1=C(OC(=O)N(C)c2ccccc2)C(=O)C=C2C1=CC=C1[C@@]2(C)CC[C@@]2(C)[C@@H]3C[C@](C)(C(=O)OCc4ccccc4)CC[C@]3(C)CC[C@]12C
[1]
  IC50: 6.36 µM
[2]
  IC50: 4.31 µM
[3]
  IC50: 14.8 µM
[4]
  IC50: 4.25 µM
[5]
  IC50: 4.07 µM

## CCCOC(=O)[C@]1(C)CC[C@]2(C)CC[C@]3(C)C4=CC=C5C(=CC(=O)C(O)=C5C)[C@]4(C)CC[C@@]3(C)[C@@H]2C1
[1]
  IC50: 1.38 µM
[2]
  IC50: 0.47 µM
[3]
  IC50: 2.15 µM
[4]
  IC50: 0.28 µM
[5]
  IC50: 0.41 µM

## CCCCOC(=O)[C@]1(C)CC[C@]2(C)CC[C@]3(C)C4=CC=C5C(=CC(=O)C(O)=C5C)[C@]4(C)CC[C@@]3(C)[C@@H]2C1
[1]
  IC50: 0.79 µM
[2]
  IC50: 0.73 µM
[3]
  IC50: 1.36 µM
[4]
  IC50: 1.05 µM
[5]
  IC50: 1.01 µM

## C=CCOC(=O)[C@]1(C)CC[C@]2(C)CC[C@]3(C)C4=CC=C5C(=CC(=O)C(O)=C5C)[C@]4(C)CC[C@@]3(C)[C@@H]2C1
[1]
  IC50: 0.31 µM
[2]
  IC50: 0.33 µM
[3]
  IC50: 1.49 µM
[4]
  IC50: 0.31 µM
[5]
  IC50: 0.63 µM

## CC1=C(O)C(=O)C=C2C1=CC=C1[C@@]2(C)CC[C@@]2(C)[C@@H]3C[C@](C)(C(=O)OCOCc4ccccc4)CC[C@]3(C)CC[C@]12C
[1]
  IC50: 1.12 µM
[2]
  IC50: 0.3 µM
[3]
  IC50: 3.78 µM
[4]
  IC50: 0.37 µM
[5]
  IC50: 0.51 µM

## CC1=C(O)C(=O)C=C2C1=CC=C1[C@@]2(C)CC[C@@]2(C)[C@@H]3C[C@](C)(C(=O)OCc4cccc(Cl)c4)CC[C@]3(C)CC[C@]12C
[1]
  IC50: 0.42 µM
[2]
  IC50: 0.31 µM
[3]
  IC50: 3.25 µM
[4]
  IC50: 0.87 µM
[5]
  IC50: 0.37 µM

## COC(=O)[C@]1(C)CC[C@]2(C)CC[C@]3(C)C4=CC=C5C(=CC(=O)C(O)=C5C)[C@]4(C)CC[C@@]3(C)[C@@H]2C1 [PRISTIMERIN]
[1]
  IC50: 0.32 µM
[2]
  IC50: 0.63 µM
[3]
  IC50: 1.03 µM
[4]
  IC50: 0.78 µM
[5]
  IC50: 1.16 µM

## CC1=C(O)C(=O)C=C2C1=CC=C1[C@@]2(C)CC[C@@]2(C)[C@@H]3C[C@](C)(C(=O)OCc4ccc([N+](=O)[O-])cc4)CC[C@]3(C)CC[C@]12C
[1]
  IC50: 0.41 µM
[2]
  IC50: 0.51 µM
[3]
  IC50: 2.01 µM
[4]
  IC50: 0.44 µM
[5]
  IC50: 0.24 µM

## CC1=C(O)C(=O)C=C2C1=CC=C1[C@@]2(C)CC[C@@]2(C)[C@@H]3C[C@](C)(C(=O)OCc4ccccc4)CC[C@]3(C)CC[C@]12C
[1]
  IC50: 0.46 µM
[2]
  IC50: 0.31 µM
[3]
  IC50: 2.33 µM
[4]
  IC50: 0.8 µM
[5]
  IC50: 0.2 µM

## CCCCCOC(=O)[C@]1(C)CC[C@]2(C)CC[C@]3(C)C4=CC=C5C(=CC(=O)C(O)=C5C)[C@]4(C)CC[C@@]3(C)[C@@H]2C1
[1]
  IC50: 0.56 µM
[2]
  IC50: 0.46 µM
[3]
  IC50: 2.3 µM
[4]
  IC50: 0.44 µM
[5]
  IC50: 0.81 µM

## CCCCCCOC(=O)[C@]1(C)CC[C@]2(C)CC[C@]3(C)C4=CC=C5C(=CC(=O)C(O)=C5C)[C@]4(C)CC[C@@]3(C)[C@@H]2C1
[1]
  IC50: 1.84 µM
[2]
  IC50: 1.58 µM
[3]
  IC50: 9.31 µM
[4]
  IC50: 1.74 µM
[5]
  IC50: 2.21 µM

## CCOC(=O)[C@]1(C)CC[C@]2(C)CC[C@]3(C)C4=CC=C5C(=CC(=O)C(O)=C5C)[C@]4(C)CC[C@@]3(C)[C@@H]2C1
[1]
  IC50: 0.83 µM
[2]
  IC50: 0.24 µM
[3]
  IC50: 1.44 µM
[4]
  IC50: 0.49 µM
[5]
  IC50: 0.92 µM
